Numbers after ± are expanded uncertainties.
Experiment: molar heat capacity at constant pressure
Conditions: Liquid, Large sample (1 g) DSC

CCCCCCCCCCCCCCCC [hexadecane]
molar heat capacity at constant pressure [J/K/mol]
Conditions	130 kPa	10090 kPa
323.15 K	513.57 ± 7.9	512.21 ± 7.9
328.15 K	517.19 ± 7.9	515.83 ± 7.9
333.15 K	520.81 ± 8.2	519.46 ± 8.2
338.15 K	524.66 ± 8.2	523.31 ± 8.2
343.15 K	528.51 ± 8.2	526.48 ± 8.2
348.15 K	532.82 ± 8.2	530.1 ± 8.2
353.15 K	536.44 ± 8.4	534.4 ± 8.4
358.15 K	540.74 ± 8.4	538.48 ± 8.4
363.15 K	544.59 ± 8.4	542.1 ± 8.4
368.15 K	548.67 ± 8.6	546.4 ± 8.4
373.15 K	553.2 ± 8.6	550.7 ± 8.6
378.15 K	557.27 ± 8.6	554.55 ± 8.6
383.15 K	561.57 ± 8.6	558.86 ± 8.6
388.15 K	565.65 ± 8.8	563.16 ± 8.8
393.15 K	569.73 ± 8.8	567.24 ± 8.8
398.15 K	574.03 ± 8.8	571.31 ± 8.8
403.15 K	578.56 ± 9.1	575.61 ± 8.8
408.15 K	583.09 ± 9.1	579.92 ± 9.1
413.15 K	586.94 ± 9.1	584.44 ± 9.1
418.15 K	591.46 ± 9.1	588.97 ± 9.1
423.15 K	595.77 ± 9.3	593.05 ± 9.3
428.15 K	599.62 ± 9.3	596.45 ± 9.3
433.15 K	603.92 ± 9.3	600.3 ± 9.3
438.15 K	608.67 ± 9.5	604.6 ± 9.3
443.15 K	613.2 ± 9.5	609.35 ± 9.5
448.15 K	617.28 ± 9.5	613.66 ± 9.5
453.15 K	622.26 ± 9.7	617.05 ± 9.5
458.15 K	–	621.35 ± 9.7
463.15 K	–	625.43 ± 9.7
468.15 K	–	630.19 ± 9.7
473.15 K	–	634.94 ± 9.7

CCCCCCCCCC [decane]
molar heat capacity at constant pressure [J/K/mol]
Conditions	120 kPa	10170 kPa
323.15 K	326.25 ± 5.1	322.98 ± 5
328.15 K	328.24 ± 5.1	325.68 ± 5
333.15 K	330.52 ± 5.1	328.39 ± 5.1
338.15 K	333.22 ± 5.1	330.95 ± 5.1
343.15 K	336.21 ± 5.3	333.65 ± 5.1
348.15 K	339.06 ± 5.3	336.35 ± 5.3
353.15 K	341.9 ± 5.3	339.06 ± 5.3
358.15 K	344.46 ± 5.4	342.05 ± 5.3
363.15 K	346.88 ± 5.4	344.61 ± 5.4
368.15 K	349.73 ± 5.4	347.31 ± 5.4
373.15 K	352.72 ± 5.4	350.3 ± 5.4
378.15 K	355.56 ± 5.5	353 ± 5.4
383.15 K	358.55 ± 5.5	355.7 ± 5.5
388.15 K	361.68 ± 5.5	358.41 ± 5.5
393.15 K	364.81 ± 5.7	361.4 ± 5.5
398.15 K	367.8 ± 5.7	364.24 ± 5.7
403.15 K	371.21 ± 5.7	367.09 ± 5.7
408.15 K	–	370.07 ± 5.7
413.15 K	–	372.78 ± 5.8
418.15 K	–	375.77 ± 5.8
423.15 K	–	379.32 ± 5.8
428.15 K	–	382.6 ± 6

CCCCCCCCCCCCCC [tetradecane]
molar heat capacity at constant pressure [J/K/mol]
Conditions	120 kPa	10120 kPa
323.15 K	449.55 ± 6.9	447.76 ± 6.9
328.15 K	452.72 ± 6.9	451.13 ± 6.9
333.15 K	456.09 ± 7.1	454.51 ± 7.1
338.15 K	459.47 ± 7.1	457.88 ± 7.1
343.15 K	463.04 ± 7.1	461.25 ± 7.1
348.15 K	466.61 ± 7.1	464.82 ± 7.1
353.15 K	470.38 ± 7.3	468.2 ± 7.3
358.15 K	474.15 ± 7.3	471.97 ± 7.3
363.15 K	477.72 ± 7.3	475.54 ± 7.3
368.15 K	481.49 ± 7.5	478.91 ± 7.3
373.15 K	485.26 ± 7.5	483.07 ± 7.5
378.15 K	489.03 ± 7.5	486.45 ± 7.5
383.15 K	492.8 ± 7.7	489.82 ± 7.5
388.15 K	496.76 ± 7.7	493.19 ± 7.7
393.15 K	500.14 ± 7.7	497.16 ± 7.7
398.15 K	504.5 ± 7.7	500.73 ± 7.7
403.15 K	508.27 ± 7.9	503.71 ± 7.7
408.15 K	512.44 ± 7.9	508.47 ± 7.9
413.15 K	515.81 ± 7.9	511.64 ± 7.9
418.15 K	519.58 ± 8.1	515.41 ± 7.9
423.15 K	523.35 ± 8.1	518.78 ± 8.1
428.15 K	527.12 ± 8.1	522.16 ± 8.1
433.15 K	530.89 ± 8.1	525.93 ± 8.1
438.15 K	535.25 ± 8.3	529.3 ± 8.1
443.15 K	539.81 ± 8.3	533.47 ± 8.3
448.15 K	543.58 ± 8.3	537.63 ± 8.3
453.15 K	547.95 ± 8.5	541.6 ± 8.3
458.15 K	554.1 ± 8.5	545.77 ± 8.5
463.15 K	559.65 ± 8.7	550.33 ± 8.5
468.15 K	–	553.9 ± 8.5
473.15 K	–	558.07 ± 8.7
478.15 K	–	562.83 ± 8.7
483.15 K	–	566.79 ± 8.7

CCCCCC [hexane]
molar heat capacity at constant pressure [J/K/mol]
Conditions	323.15 K	328.15 K	333.15 K	338.15 K	343.15 K	348.15 K	353.15 K	358.15 K	363.15 K	368.15 K
140 kPa	203.63 ± 3.2	205.7 ± 3.2	207.85 ± 3.2	–	–	–	–	–	–	–
10090 kPa	200.62 ± 3.1	202.43 ± 3.1	204.49 ± 3.2	206.13 ± 3.2	208.11 ± 3.2	210.1 ± 3.3	211.91 ± 3.3	214.15 ± 3.4	216.04 ± 3.4	218.37 ± 3.4

CCCCCCCCCCCC [dodecane]
molar heat capacity at constant pressure [J/K/mol]
Conditions	100 kPa	10180 kPa
323.15 K	386.32 ± 6	385.13 ± 6
328.15 K	389.56 ± 6	388.02 ± 6
333.15 K	392.79 ± 6.1	391.26 ± 6.1
338.15 K	395.86 ± 6.1	394.33 ± 6.1
343.15 K	399.09 ± 6.1	397.39 ± 6.1
348.15 K	402.33 ± 6.3	400.46 ± 6.1
353.15 K	405.57 ± 6.3	403.52 ± 6.3
358.15 K	408.8 ± 6.3	406.93 ± 6.3
363.15 K	412.04 ± 6.5	410 ± 6.3
368.15 K	415.28 ± 6.5	413.23 ± 6.5
373.15 K	418.85 ± 6.5	416.13 ± 6.5
378.15 K	422.09 ± 6.5	419.36 ± 6.5
383.15 K	425.5 ± 6.6	422.6 ± 6.5
388.15 K	428.73 ± 6.6	426.01 ± 6.6
393.15 K	432.31 ± 6.6	429.07 ± 6.6
398.15 K	435.38 ± 6.8	433.16 ± 6.6
403.15 K	438.78 ± 6.8	435.89 ± 6.8
408.15 K	442.53 ± 6.8	438.78 ± 6.8
413.15 K	445.77 ± 7	441.68 ± 6.8
418.15 K	449.34 ± 7	444.06 ± 6.8
423.15 K	452.92 ± 7	447.64 ± 7
428.15 K	456.5 ± 7.2	450.88 ± 7
433.15 K	460.59 ± 7.2	454.28 ± 7
438.15 K	465.35 ± 7.2	458.2 ± 7.2
443.15 K	–	462.12 ± 7.2
448.15 K	–	465.7 ± 7.2
453.15 K	–	469.95 ± 7.3

CCCCCCCC [octane]
molar heat capacity at constant pressure [J/K/mol]
Conditions	100 kPa	10130 kPa
323.15 K	263.3 ± 4.1	260.9 ± 4
328.15 K	265.7 ± 4.1	263.18 ± 4.1
333.15 K	267.98 ± 4.1	265.58 ± 4.1
338.15 K	270.38 ± 4.2	267.75 ± 4.1
343.15 K	272.66 ± 4.2	270.04 ± 4.2
348.15 K	275.18 ± 4.2	272.32 ± 4.2
353.15 K	277.58 ± 4.3	274.49 ± 4.2
358.15 K	280.09 ± 4.3	277 ± 4.3
363.15 K	282.6 ± 4.3	279.17 ± 4.3
368.15 K	285.11 ± 4.5	281.57 ± 4.3
373.15 K	287.86 ± 4.5	283.97 ± 4.5
378.15 K	290.37 ± 4.5	286.49 ± 4.5
383.15 K	293.45 ± 4.6	288.88 ± 4.5
388.15 K	–	290.94 ± 4.5
393.15 K	–	292.88 ± 4.6
398.15 K	–	295.97 ± 4.6

From the NIST ThermoML archive (doi:10.1016/j.jct.2017.03.034)
